Read-outs that look alike come from different tables or passages of the source.
Columns and labels:
[1] = target: T1, muscarinic receptor M3 (Homo sapiens, UniProt P20309); experiment: Muscarinic receptor subtype M3 binding assay, radioligand displacement; settings: [3]H-methylscopolamine displacement, membranes from recombinant mammalian cell lines; read-out: Ki values, receptor subtype M3
T1 construct: expressed in transfected cells
Experimental: (§1) Muscarinic receptor subtype M1-M5 binding assays were carried out. Briefly, [3]H-methylscopolamine was allowed to bind to membranes from various recombinant mammalian cell lines, each with an over-expression of a particular receptor subtype.
(§2) Muscarinic receptor subtype M1-M5 binding assays were performed.

[2] = target: T2, muscarinic receptor M1 (Homo sapiens, UniProt P11229); experiment: Muscarinic receptor subtype M1 binding assay, radioligand displacement
T2 construct: expressed in transfected cells
T2 sequence (P11229 1-460): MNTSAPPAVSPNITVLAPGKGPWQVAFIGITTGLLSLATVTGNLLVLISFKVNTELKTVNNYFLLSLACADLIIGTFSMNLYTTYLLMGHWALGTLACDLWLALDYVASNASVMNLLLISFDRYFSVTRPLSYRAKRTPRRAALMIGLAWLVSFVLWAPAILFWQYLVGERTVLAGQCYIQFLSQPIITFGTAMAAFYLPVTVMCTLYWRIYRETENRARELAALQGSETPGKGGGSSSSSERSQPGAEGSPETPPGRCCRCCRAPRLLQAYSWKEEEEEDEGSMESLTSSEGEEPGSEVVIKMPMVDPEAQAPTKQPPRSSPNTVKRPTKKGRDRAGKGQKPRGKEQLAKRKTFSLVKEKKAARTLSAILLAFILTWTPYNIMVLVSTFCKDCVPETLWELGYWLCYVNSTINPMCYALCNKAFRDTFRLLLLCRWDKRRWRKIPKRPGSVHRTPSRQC
Experimental: as §1, §2

[3] = target: T3, muscarinic receptor M4 (Homo sapiens, UniProt P08173); experiment: Muscarinic receptor subtype M4 binding assay, radioligand displacement; settings: [3]H-methylscopolamine displacement, membranes from recombinant mammalian cell lines
T3 construct: expressed in transfected cells
T3 sequence (P08173 1-479): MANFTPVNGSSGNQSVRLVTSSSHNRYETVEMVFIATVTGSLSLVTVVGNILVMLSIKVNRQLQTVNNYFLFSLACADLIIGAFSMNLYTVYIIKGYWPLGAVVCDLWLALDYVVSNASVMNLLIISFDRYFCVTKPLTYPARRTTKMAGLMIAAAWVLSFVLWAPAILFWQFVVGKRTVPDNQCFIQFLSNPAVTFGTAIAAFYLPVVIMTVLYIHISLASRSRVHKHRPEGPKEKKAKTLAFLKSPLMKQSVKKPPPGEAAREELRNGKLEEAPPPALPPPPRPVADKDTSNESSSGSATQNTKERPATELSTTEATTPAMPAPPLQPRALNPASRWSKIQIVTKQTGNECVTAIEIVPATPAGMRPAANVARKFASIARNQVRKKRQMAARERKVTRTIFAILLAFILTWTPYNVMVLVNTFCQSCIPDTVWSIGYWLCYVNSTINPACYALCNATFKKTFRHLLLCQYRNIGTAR
Experimental: as §1, §2

[4] = target: T4, muscarinic receptor M5 (Homo sapiens, UniProt P08912); experiment: Muscarinic receptor subtype M5 binding assay, radioligand displacement; settings: [3]H-methylscopolamine displacement, membranes from recombinant mammalian cell lines; read-out: Ki values, receptor subtype M5
T4 construct: expressed in transfected cells
T4 sequence (P08912 1-532): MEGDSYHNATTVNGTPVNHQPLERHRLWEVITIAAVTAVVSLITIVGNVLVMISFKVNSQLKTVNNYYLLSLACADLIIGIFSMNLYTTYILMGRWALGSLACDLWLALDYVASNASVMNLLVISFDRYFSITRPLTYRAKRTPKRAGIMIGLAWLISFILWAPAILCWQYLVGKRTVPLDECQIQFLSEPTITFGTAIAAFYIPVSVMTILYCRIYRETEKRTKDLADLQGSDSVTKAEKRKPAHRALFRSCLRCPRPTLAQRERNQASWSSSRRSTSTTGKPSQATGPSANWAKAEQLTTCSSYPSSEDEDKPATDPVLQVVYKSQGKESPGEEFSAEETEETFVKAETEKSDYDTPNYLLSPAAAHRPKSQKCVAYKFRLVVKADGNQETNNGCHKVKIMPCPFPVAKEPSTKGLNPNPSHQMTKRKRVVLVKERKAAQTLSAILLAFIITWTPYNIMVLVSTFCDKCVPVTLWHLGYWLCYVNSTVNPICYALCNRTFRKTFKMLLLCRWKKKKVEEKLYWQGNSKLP
Experimental: as §1, §2

[5] = test system: methacholine-induced bronchoconstriction in Balb/c mice; experiment: Bronchodilatory effect of inhaled compounds, Example VIII (% inhibition); format: in vivo; settings: inhalation of 1 mg/mL FBE; for % inhibition of bronchoconstriction after 10 min: 10 min after dosing; for % inhibition of bronchoconstriction after 36 h: 36 h after dosing
Text: Bronchoconstriction was induced in BALB/c mice by administration of methacholine.

[6] = target: T5, muscarinic receptor M2 (Homo sapiens, UniProt P08172); experiment: Muscarinic receptor subtype M2 binding assay, radioligand displacement; settings: [3]H-methylscopolamine displacement, membranes from recombinant mammalian cell lines
T5 construct: expressed in transfected cells
T5 sequence (P08172 1-466): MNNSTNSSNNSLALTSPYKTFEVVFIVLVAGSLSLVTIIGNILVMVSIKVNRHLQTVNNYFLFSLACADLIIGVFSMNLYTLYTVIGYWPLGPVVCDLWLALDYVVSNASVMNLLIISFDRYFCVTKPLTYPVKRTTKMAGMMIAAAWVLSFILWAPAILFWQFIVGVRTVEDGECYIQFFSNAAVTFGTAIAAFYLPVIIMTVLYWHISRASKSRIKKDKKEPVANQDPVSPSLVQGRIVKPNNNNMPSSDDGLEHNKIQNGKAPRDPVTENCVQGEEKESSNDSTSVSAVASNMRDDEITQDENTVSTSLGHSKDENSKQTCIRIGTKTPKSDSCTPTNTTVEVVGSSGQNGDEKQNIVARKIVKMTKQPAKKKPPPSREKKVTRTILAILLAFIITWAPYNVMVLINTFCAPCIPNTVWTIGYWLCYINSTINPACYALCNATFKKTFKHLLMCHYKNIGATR
Experimental: as §1, §2

[7] = Pharmacokinetics of inhaled tolterodine, plasma levels; format: in vivo, Balb/c mice; settings: FIG. 7
Experimental: Blood samples were collected at 2.5 minutes, 15 minutes, 30 minutes, 1 hour or 2 hours after aerosol drug treatment. Blood samples were prepared as in example VI. Samples were analyzed using a PE SCIEX API 3000 mass spectrometer. Chromatographically, the analyte and the internal standard were resolved on a Zorbax ACE Phenyl column using a gradient elution. The limit of quantitation was 100 pg/mL.

[8] = [3]H-methylscopolamine displacement, membranes from recombinant mammalian cell lines

T1 sequence (P20309 whole entry): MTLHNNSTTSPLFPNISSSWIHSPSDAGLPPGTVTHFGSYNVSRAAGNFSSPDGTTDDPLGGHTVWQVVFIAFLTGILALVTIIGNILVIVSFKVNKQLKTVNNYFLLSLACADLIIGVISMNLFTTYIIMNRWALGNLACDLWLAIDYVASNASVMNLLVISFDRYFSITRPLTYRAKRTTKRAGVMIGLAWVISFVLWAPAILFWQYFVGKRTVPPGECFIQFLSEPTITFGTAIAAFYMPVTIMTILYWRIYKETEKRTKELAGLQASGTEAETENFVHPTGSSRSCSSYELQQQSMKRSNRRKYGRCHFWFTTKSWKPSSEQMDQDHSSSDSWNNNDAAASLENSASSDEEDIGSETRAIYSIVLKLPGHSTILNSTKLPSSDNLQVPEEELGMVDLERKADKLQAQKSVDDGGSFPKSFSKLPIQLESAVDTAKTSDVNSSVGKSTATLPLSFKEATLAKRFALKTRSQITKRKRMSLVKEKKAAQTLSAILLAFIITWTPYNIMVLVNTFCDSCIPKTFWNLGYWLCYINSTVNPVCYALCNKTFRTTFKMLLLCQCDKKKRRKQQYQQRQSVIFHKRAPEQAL

Ki [1]	Ki [2, 8]	melting point	Ki [3]	Ki [4]	Ki [6]	SMILES	% inhibition of bronchoconstriction after 10 min [5]	% inhibition of bronchoconstriction after 36 h [5]	% inhibition of bronchoconstriction after 24 h ([5]; 24 h after dosing)	% inhibition of bronchoconstriction after 48 h ([5]; 48 h after dosing)	Plasma levels ([7]; inhalation of nebulized solution at 0.1 mg/ml, limit of quantitation 100 pg/mL)	absorption into the circulation ([7]; inhalation of nebulized solutions at 0.1, 0.5 or 1.0 mg/ml)	Ki [2]
0.92 nM	0.86 nM		1.07 nM	0.68 nM	1.08 nM	CC(C)[N+](C)(CC[C@H](c1ccccc1)c1cc(CO)ccc1O)C(C)C.[I-] [Example 8, (3R)-3-[2-Hydroxy-5-(hydroxymethyl)phenyl]-N,N-diisopropyl-N-methyl-3-phenylpropan-1-aminium iodide]	82%		60%	15%			
		211 °C (dec.)				COc1ccc(C)cc1[C@H](CC[N+](C)(C(C)C)C(C)C)c1ccccc1.[I-] [Example 20, (3R)-N,N-diisopropyl-3-(2-methoxy-5-methylphenyl)-N-methyl-3-phenylpropan-1-aminium iodide]							
		175 °C (dec.)				CCCC(=O)Oc1ccc(C)cc1[C@H](CC[N+](C)(C(C)C)C(C)C)c1ccccc1.[I-] [Example 21, (3R)-3-[2-(Butyryloxy)-5-methylphenyl]-N,N-diisopropyl-N-methyl-3-phenylpropan-1-aminium iodide]							
3.3 nM	1.2 nM		4.2 nM	1.6 nM	2.2 nM	Cc1ccc(O)c(C(CC[N+]2(C)CCCC2)c2ccccc2)c1.[I-] (centres unmarked) [Example 31, 1-[3-(2-Hydroxy-5-Methylphenyl)-3-phenylpropyl]-1-methylpyrrolidinium iodide]	100%	0%					
3.1 nM	1.1 nM		3.8 nM	1.2 nM	1.7 nM	CC[N+]1(CCC(c2ccccc2)c2cc(C)ccc2O)CCCC1.[I-] (centres unmarked) [Example 32, 1-Ethyl-1-(3-(2-hydroxy-5-methylphenyl)-3-phenylpropyl]pyrrolidinium iodide]	100%	17%					
3.2 nM	1.1 nM		3.6 nM	0.9 nM	1.7 nM	Cc1ccc(O)c(C(CC[N+]2(C)CCCCC2)c2ccccc2)c1.[I-] (centres unmarked) [Example 33, 1-[3-(2-Hydroxy-5-methylphenyl)-3-phenylpropyl]-1-methylpiperidinium iodide]	100%	0%					
4.7 nM	1 nM		2.9 nM	1.8 nM	1 nM	Cc1ccc(O)c(C(CC[N+]2(C)CCCCCC2)c2ccccc2)c1.[I-] (centres unmarked) [Example 34, 1-[3-(2-Hydroxy-5-methylphenyl)-3-phenylpropyl]-1-methylazepanium iodide]	100%	0%					
1.4 nM	1.5 nM		1.4 nM	0.48 nM	0.33 nM	CC(C)N(CC[C@H](c1ccccc1)c1cc(CO)ccc1O)C(C)C [Hydroxytolterodine, 2-[(1R)-3-(diisopropylamino)-1-phenylpropyl]-4-(hydroxymethyl)phenol, reference compound]							

SMILES	Ki [1]	Ki [2, 8]	melting point	Ki [3]	Ki [4]	Ki [6]	% inhibition of bronchoconstriction after 10 min [5]	% inhibition of bronchoconstriction after 36 h [5]	% inhibition of bronchoconstriction after 24 h ([5]; 24 h after dosing)	% inhibition of bronchoconstriction after 48 h ([5]; 48 h after dosing)	Plasma levels ([7]; inhalation of nebulized solution at 0.1 mg/ml, limit of quantitation 100 pg/mL)	absorption into the circulation ([7]; inhalation of nebulized solutions at 0.1, 0.5 or 1.0 mg/ml)	Ki [2]
Cc1ccc(O)c([C@H](CC[N+](C)(C(C)C)C(C)C)c2ccccc2)c1.[Br-] [Example 3]	0.43 nM	0.3 nM	189 to 191 °C (dec.)	0.72 nM	0.26 nM	0.52 nM	100%	93%					
Cc1ccc(O)c([C@H](CCN(C(C)C)C(C)C)c2ccccc2)c1 [Tolterodine, 2-[(1R)-3-(diisopropylamino)-1-phenylpropyl]-4-methylphenol, reference compound]				1.5 nM	0.55 nM						at or below detection limits	rapidly absorbed into the circulation	0.87 nM

Reference: US6890920B2, “Quaternary ammonium compounds” (Pharmacia & Upjohn Company, priority 1992, dated 2005)
